Laboratory results: patent publication US8168632B2, “Bicyclic amide derivatives for the treatment of respiratory disorders” (Cortex Pharmaceuticals, Inc., priority 2007, dated 2012)

System: AMPA receptor
Test: In vivo electrophysiology (field EPSP in dentate gyrus of anesthetized animals)
Conditions: 10 mpk i.p., perforant path stimulation
Procedure: The electrophysiological effects of the invention compounds were tested in vivo in anesthetized animals according to the following procedures. Animals are maintained under anesthesia by phenobarbital administered using a Hamilton syringe pump. Stimulating and recording electrodes are inserted into the perforant path and dentate gyrus of the hippocampus, respectively. Once electrodes are implanted, a stable baseline of evoked responses are elicited using single monophasic pulses (100 μs pulse duration) delivered at 3/min to the stimulating electrode. Field EPSPs are monitored until a stable baseline is achieved (about 20-30 min), after which a solution of test compound is injected intraperitoneally and evoked field potentials are recorded. Evoked potentials were recorded for approximately 2 h following drug administration or until the amplitude of the field EPSP returns to baseline. In the latter instance, it is common that an iv administration is also carried out with an appropriate dose of the same test compound. Invention compounds were assayed in the in vivo electrophysiology assay described above and data for representative test compounds is shown in the Table.
The electrophysiological effects of invention compounds were tested in vivo in anesthetized animals according to the following procedures.
Animals are maintained under anesthesia by phenobarbital administered using a Hamilton syringe pump. Stimulating and recording electrodes are inserted into the perforant path and dentate gyrus of the hippocampus, respectively. Once electrodes are implanted, a stable baseline of evoked responses are elicited using single monophasic pulses (100 μs pulse duration) delivered at 3/min to the stimulating electrode. Field EPSPs are monitored until a stable baseline is achieved (about 20-30 min), after which a solution of test compound is injected intraperitoneally and evoked field potentials are recorded. Evoked potentials are recorded for approximately 2 h following drug administration or until the amplitude of the field EPSP returns to baseline. […]

Row | SMILES | In vivo Electrophysiology: % increase in the amplitude of the field EPSP in the dentate gyrus of rat [%]
1 | O=C(c1ccc2nonc2c1)N1C2CCC1COC2 [Example 1, [2,1,3]-Benzoxadiazol-5-yl(3-oxa-8-azabicyclo[3.2.1]oct-8-yl)methanone] | 17
2 | O=C(c1ccc2nonc2c1)N1C2CCCC1COC2 [Example 2, [2,1,3]-Benzoxadiazol-5-yl(3-oxa-9-azabicyclo[3.3.1]non-9-yl)methanone] | 16
3 | O=C(c1ccc2nonc2c1)N1C2COCC1COC2 [Example 3, [2,1,3]-Benzoxadiazol-5-yl(3,7-dioxa-9-azabicyclo[3.3.1]non-9-yl)methanone] | 15
